Consider two compounds from patent publication US9663486B2, “Selectively substituted quinoline compounds” (EISAI R&D MANAGEMENT CO., LTD., priority 2013, dated 2017).

In test [1] the target is T1, Human TLR9 (Homo sapiens, UniProt Q9NR96).
T1 sequence (Q9NR96 26-1032): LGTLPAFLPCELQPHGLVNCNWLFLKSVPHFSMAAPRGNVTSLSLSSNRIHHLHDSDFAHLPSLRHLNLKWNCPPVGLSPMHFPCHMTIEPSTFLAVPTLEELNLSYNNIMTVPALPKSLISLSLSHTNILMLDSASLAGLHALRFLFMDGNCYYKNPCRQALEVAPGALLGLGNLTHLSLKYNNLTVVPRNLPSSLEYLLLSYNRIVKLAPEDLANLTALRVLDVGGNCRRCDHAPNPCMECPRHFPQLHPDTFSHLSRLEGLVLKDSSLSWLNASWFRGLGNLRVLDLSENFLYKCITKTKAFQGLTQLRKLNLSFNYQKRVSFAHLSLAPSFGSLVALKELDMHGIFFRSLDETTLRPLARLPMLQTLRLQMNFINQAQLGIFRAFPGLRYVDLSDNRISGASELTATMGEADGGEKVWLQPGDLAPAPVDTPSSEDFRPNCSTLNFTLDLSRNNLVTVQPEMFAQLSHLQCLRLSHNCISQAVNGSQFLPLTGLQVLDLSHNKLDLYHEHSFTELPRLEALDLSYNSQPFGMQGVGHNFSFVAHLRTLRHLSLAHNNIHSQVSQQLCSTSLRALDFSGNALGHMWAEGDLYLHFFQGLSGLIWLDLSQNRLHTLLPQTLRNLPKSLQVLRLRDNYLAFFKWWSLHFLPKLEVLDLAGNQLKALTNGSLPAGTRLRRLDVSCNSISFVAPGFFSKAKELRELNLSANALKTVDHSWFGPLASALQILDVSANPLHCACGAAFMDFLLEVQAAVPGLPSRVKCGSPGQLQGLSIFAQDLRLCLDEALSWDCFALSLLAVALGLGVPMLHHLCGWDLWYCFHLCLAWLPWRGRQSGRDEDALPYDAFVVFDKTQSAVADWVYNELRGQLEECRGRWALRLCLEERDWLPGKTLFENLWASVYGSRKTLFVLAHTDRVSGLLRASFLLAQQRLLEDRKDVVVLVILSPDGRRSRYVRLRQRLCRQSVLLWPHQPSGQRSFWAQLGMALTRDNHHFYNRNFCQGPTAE
Kind of test: Human PBMC cell-based assay, CpG-ODN stimulation, IL-6. Also on record: endogenous in cells; host or cells: primary human PBMC from healthy donors. The following applies: Hu PBMC; ligand CpG-ODN. Here is the method: (§1) Human peripheral blood mononuclear cells (PBMC) were isolated from freshly-drawn heparinized (10 USP units/ml, Hospira, Lakeforest, Ill.) healthy donor whole blood by density gradient (Histopaque® 1077, Sigma, Inc., St. Louis, Mo.). Briefly, 25 ml blood was diluted with 15 ml PBS (without Ca^2+, Mg^2+) in a 50 ml conical tube, and 12 ml Histopaque was underlaid using a spinal needle. Tubes were centrifuged for 45 minutes at 1200 rpm (350×g), and PBMC were collected from the buffy coat. Cells were then washed twice in PBS, and red blood cells were lysed by suspension in 5 ml ammonium chloride solution (1× Red Blood Cell Lysis Buffer, eBioscience) for 5 minutes at room temperature. […]
(§2) Antagonist compounds solubilized and serial diluted in 100% DMSO were added in triplicate to cells to yield a final concentration of 0.1% DMSO (v/v). […] Cell culture supernatants were collected, and levels of various human cytokines were assessed as indicated by standard ELISA procedure according to the manufacturer's recommended protocol (BD Biosciences, Inc., San Diego, Calif.).

For test [2], the target named is Human TLR4 (Homo sapiens, UniProt O00206). Kind of test: Human PBMC cell-based assay, LPS stimulation, IL-6. Also on record: endogenous in cells; host or cells: primary human PBMC from healthy donors. The following applies: Hu PBMC; ligand LPS. Here is the method: as §1, §2
Human TLR4, sequence (O00206 24-839): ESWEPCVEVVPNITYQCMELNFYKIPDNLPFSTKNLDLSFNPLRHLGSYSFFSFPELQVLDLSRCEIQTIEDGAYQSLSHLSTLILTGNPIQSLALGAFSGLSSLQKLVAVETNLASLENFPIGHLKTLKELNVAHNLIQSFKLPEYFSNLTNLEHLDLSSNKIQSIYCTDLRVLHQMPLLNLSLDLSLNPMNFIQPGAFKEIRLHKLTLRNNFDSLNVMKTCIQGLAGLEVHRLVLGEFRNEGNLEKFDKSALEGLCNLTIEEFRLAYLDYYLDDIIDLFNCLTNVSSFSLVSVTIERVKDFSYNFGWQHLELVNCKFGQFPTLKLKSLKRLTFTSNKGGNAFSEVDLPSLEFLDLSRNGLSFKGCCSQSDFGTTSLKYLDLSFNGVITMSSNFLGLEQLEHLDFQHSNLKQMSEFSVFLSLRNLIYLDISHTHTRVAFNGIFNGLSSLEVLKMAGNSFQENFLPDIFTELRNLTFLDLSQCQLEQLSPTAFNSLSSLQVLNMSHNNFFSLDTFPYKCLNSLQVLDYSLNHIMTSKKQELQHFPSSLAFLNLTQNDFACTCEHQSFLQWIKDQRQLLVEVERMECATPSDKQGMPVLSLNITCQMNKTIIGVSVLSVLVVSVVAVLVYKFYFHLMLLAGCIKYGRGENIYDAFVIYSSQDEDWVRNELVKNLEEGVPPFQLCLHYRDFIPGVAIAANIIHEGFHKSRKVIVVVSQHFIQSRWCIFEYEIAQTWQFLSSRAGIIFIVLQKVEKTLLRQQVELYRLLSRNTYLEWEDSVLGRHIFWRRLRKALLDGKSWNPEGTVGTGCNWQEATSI
Human TLR4, sequence (Q9Y6Y9 19-160 partner): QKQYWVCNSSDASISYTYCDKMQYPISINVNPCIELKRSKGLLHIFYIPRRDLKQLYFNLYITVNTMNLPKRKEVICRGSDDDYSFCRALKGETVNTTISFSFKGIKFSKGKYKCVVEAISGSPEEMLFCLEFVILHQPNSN
Test [3] relates to Human TLR7/8. Kind of test: Human PBMC cell-based assay, TLR7/8 (RNA-Ig), cytokine ELISA. The settings on record: PBMC assay data summary; ligand and analyte not given; read-out: Human PBMCs IC50. Here is the method: Human peripheral blood mononuclear cells (PBMC) were isolated from freshly-drawn heparinized (10 USP units/ml, Hospira, Lakeforest, Ill.) healthy donor whole blood by density gradient (Histopaque® 1077, Sigma, Inc., St. Louis, Mo.). Briefly, 25 ml blood was diluted with 15 ml PBS (without Ca^2+, Mg^2+) in a 50 ml conical tube, and 12 ml Histopaque was underlaid using a spinal needle. Tubes were centrifuged for 45 minutes at 1200 rpm (350×g), and PBMC were collected from the buffy coat. Cells were then washed twice in PBS, and red blood cells were lysed by suspension in 5 ml ammonium chloride solution (1× Red Blood Cell Lysis Buffer, eBioscience) for 5 minutes at room temperature. After a final wash in PBS, PBMC were resuspended at a final concentration of 2×10^6/ml in RPMI-1640 media with L-glutamine (Invitrogen) and supplemented with 25 mM HEPES (Mediatech, Inc, Manassas Va.), 10% fetal bovine serum (HyClone, Logan, Utah), and Penicillin-Streptomycin-Glutamine (Mediatech) and plated at 100 ul/well (2×10^5 cells/well) in tissue culture treated 96-well plates (Falcon).
Antagonist compounds solubilized and serial diluted in 100% DMSO were added in triplicate to cells to yield a final concentration of 0.1% DMSO (v/v). Hydroxychloroquine (Acros Organics) solubilized and serial diluted in PBS was added in triplicate to cells. PBMC were incubated with antagonist compounds or HCQ for 30 minutes at 37° C., 5% CO2 before adding various TLR agonist reagents in 100 ul complete media per well as follows (final concentrations indicated): R848 (Resiquimod; GLSynthesis, Worcester, Mass.) at 1 uM for TLR7 and TLR8, Pam3CSK4 (InvivoGen) at 50 ng/ml for TLR1/2, LPS (Sigma) at 10 ng/ml for TLR4, and CpG-2216 (InvivoGen) at 5 ug/ml for TLR9. […] The resulting “RNA-Ig” stimulus was incubated at room temperature for 15-30 minutes before adding to cells. PBMC were incubated with the various TLR agonists for 20 hours at 37° C., 5% CO2. Cell culture supernatants were collected, and levels of various human cytokines were assessed as indicated by standard ELISA procedure according to the manufacturer's recommended protocol (BD Biosciences, Inc., San Diego, Calif.).
A general note: An ELISA detects its analyte on a solid surface through an enzyme-linked reagent.

The target in test [4] is T2, human TLR8 (Homo sapiens, UniProt Q9NR97).
T2 construct: host or cells: HEK-293 stably expressing hTLR8, then transfected with pNiFty2(NF-kappaB)-luciferase
T2 sequence (Q9NR97 27-1041): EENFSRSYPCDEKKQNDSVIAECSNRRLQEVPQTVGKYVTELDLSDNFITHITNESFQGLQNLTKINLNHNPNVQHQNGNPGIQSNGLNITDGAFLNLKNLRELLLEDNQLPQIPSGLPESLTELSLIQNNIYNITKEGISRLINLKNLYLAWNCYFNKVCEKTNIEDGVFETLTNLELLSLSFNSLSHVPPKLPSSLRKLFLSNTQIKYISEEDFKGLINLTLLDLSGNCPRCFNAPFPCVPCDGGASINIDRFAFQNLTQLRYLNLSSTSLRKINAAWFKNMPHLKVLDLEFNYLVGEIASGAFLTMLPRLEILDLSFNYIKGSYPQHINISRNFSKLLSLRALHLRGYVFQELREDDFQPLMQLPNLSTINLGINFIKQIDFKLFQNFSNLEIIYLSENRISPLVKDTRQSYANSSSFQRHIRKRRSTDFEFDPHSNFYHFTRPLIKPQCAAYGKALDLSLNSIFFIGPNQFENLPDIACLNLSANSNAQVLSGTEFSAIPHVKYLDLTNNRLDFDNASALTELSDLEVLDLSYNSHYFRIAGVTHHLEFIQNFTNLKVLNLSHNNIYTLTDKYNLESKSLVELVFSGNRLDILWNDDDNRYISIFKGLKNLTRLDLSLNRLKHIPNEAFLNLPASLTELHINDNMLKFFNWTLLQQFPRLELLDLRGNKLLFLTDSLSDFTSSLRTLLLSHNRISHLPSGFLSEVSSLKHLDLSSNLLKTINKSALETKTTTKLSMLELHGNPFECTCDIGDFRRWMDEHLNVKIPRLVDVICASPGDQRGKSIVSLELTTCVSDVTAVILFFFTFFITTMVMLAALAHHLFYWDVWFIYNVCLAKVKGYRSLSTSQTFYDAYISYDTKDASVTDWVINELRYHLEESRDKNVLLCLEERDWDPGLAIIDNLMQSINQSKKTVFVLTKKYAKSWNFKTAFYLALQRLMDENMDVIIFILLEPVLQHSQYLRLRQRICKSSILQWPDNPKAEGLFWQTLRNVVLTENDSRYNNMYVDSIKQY
Kind of test: HEK-293 assay format, human TLR8 (CL097). Format: cell-based. The settings on record: read-out: HEK/hTLR8 IC50. The text has this:
HEK-293 cells (ATCC) were engineered to stably express a NF-kappaB transcription factor inducible E-selectin (ELAM-1) luciferase reporter derived from the plasmid pGL3 (Promega) containing base pairs −2241 bp to −254 bp from the promoter of the human E-selectin gene (Accession No. NM_000450). These cells were then subsequently engineered to stably and individually express human TLR4, TLR7 or TLR9 full-length ORF cDNAs. Human TLR4 cDNA (Accession No. NM_138554) was cloned into pcDNA 3.0 expression vector (Invitrogen). TLR4 transfected cells were also engineered to express human MD-2 co-receptor [MD-2 cDNA (Accession No. NM_015364) was cloned into the pEF-BOS vector] and were supplemented with 10 nM soluble CD14 (R&D Systems) in the media to optimize LPS responsiveness. Human TLR9 cDNA (Accession No. NM_017442) was cloned into the pBluescript II KS vector (Agilent). Human TLR7 cDNA (Accession No. NM_016562) was obtained from OriGene. HEK-293 cells stably expressing human TLR8 (Accession No. NM_138636) or mouse TLR7 (Accession No. NM_133211) were purchased from InvivoGen and were then stably transfected with pNiFty2(NF-kappaB)-luciferase reporter plasmid (InvivoGen). Each cell type was plated in Dulbecco's modified Eagle's medium (DMEM) containing 10% fetal bovine serum (FBS) at a density of 2.22×10^5 cells/ml into a 384-well plate and incubated for 2 days at 37° C., 5% CO2. […]

In the case of `CCN(CCO)CCCC(C)Nc1ccnc2cc(Cl)ccc12` (stereo not shown) [HCQ, Hydroxychloroquine], the values for the IC50 in test [1] and in test [2] were 150 to 300 nM and over 10000 nM, respectively.
For the compound `N#Cc1ccc(N2CCC[C@@H](N)C2)c2cccnc12` [ER-878921], the IC50 amounted to 90 nM in test [3] and 74 nM in test [4].
